Source: ChEMBL document CHEMBL4004887, “Design, synthesis and in vitro activity of 1,4-disubstituted piperazines and piperidines as triple reuptake inhibitors” (Bioorg Med Chem, 2017)

Key:
Format in all cases: cell-based
[1] = target: Sodium-dependent serotonin transporter (Homo sapiens, UniProt P31645); assay: Inhibition of [3H]-5-hydroxytryptamine reuptake in human SERT expressed in HEK293 cells by microbeta liquid scintillation counting method
[2] = target: Sodium-dependent noradrenaline transporter (Homo sapiens, UniProt P23975); assay: Inhibition of […] reuptake in human NET expressed in HEK293 cells by microbeta liquid scintillation counting method
[3] = target: Sodium-dependent dopamine transporter (Homo sapiens, UniProt Q01959); assay: Inhibition of […] reuptake in human DAT expressed in HEK293 cells by microbeta liquid scintillation counting method
Chain of Sodium-dependent dopamine transporter (Q01959 whole entry): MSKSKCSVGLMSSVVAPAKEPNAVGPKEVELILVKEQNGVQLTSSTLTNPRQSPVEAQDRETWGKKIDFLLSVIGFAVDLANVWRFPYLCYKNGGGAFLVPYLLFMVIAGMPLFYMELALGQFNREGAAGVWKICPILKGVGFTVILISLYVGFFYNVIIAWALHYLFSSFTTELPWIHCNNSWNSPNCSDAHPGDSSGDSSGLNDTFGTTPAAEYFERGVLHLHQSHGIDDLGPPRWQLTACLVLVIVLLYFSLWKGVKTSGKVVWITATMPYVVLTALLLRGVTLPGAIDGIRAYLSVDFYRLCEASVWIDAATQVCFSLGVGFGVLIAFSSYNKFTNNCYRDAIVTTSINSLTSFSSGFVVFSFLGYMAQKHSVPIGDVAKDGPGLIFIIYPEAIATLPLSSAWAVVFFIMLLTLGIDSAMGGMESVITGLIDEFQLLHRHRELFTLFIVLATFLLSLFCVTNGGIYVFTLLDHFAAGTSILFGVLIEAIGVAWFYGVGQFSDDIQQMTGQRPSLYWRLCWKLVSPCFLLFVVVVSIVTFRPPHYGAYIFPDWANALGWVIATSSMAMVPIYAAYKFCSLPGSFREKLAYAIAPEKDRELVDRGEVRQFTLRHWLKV

Chain of Sodium-dependent noradrenaline transporter (P23975 whole entry): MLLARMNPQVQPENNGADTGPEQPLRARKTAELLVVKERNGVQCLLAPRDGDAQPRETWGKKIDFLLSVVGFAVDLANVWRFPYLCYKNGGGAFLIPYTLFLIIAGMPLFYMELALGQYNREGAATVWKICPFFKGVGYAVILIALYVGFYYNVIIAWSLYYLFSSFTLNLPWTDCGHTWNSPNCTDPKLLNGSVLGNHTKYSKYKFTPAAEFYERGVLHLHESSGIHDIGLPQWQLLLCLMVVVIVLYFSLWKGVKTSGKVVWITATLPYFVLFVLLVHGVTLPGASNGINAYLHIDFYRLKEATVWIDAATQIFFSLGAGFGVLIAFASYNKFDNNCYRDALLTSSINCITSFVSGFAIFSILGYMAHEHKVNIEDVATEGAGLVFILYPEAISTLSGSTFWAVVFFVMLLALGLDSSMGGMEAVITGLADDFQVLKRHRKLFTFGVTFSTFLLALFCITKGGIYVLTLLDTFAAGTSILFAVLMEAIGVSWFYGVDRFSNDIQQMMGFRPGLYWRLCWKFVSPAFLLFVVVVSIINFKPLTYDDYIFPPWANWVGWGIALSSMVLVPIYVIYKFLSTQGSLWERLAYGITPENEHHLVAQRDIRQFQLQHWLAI
Chain of Sodium-dependent serotonin transporter (P31645 whole entry): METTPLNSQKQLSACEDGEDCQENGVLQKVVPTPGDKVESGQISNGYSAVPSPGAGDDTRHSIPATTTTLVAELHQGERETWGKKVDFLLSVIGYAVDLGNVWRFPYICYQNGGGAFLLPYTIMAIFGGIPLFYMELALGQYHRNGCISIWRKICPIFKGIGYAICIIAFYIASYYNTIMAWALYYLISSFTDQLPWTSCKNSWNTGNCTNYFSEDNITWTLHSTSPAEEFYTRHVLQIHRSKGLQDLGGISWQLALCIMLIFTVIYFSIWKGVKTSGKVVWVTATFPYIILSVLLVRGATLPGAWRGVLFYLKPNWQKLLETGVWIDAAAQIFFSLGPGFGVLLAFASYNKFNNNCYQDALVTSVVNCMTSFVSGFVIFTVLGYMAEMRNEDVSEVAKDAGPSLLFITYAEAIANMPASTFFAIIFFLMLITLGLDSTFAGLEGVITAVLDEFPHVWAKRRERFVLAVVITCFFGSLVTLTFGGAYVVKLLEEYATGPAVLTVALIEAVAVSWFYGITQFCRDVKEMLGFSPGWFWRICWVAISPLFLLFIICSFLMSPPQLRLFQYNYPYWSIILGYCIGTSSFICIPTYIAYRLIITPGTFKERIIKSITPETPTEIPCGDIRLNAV

| Structure (SMILES) | IC50 [1] | IC50 [2] | IC50 [3] |
| --- | --- | --- | --- |
| O=C(NCCCN1CCC(Cc2ccccc2)CC1)C(c1ccccc1)c1ccccc1 | > 10000 nM | 2210 nM | 1070 nM |
| O=C(NCCN1CCC(Cc2ccccc2)CC1)C(c1ccc(Cl)cc1)c1ccc(Cl)cc1 | > 10000 nM | 8030 nM | 630 nM |
| C(=C\c1ccccc1)/CN1CCN(CCCn2nnnc2C(c2ccccc2)c2ccccc2)CC1 | 7500 nM | 1330 nM | 2230 nM |
| Fc1ccc(C(OCCN2CCN(c3cccc(Cl)c3Cl)CC2)c2ccc(F)cc2)cc1 | 5000 nM | 3000 nM | 3000 nM |
| Fc1ccc(C(OCCN2CCN(c3ccccc3Cl)CC2)c2ccc(F)cc2)cc1 | > 10000 nM | 1260 nM | 5600 nM |
| Fc1ccc(C(OCCN2CCC(Cc3ccccc3)CC2)c2ccc(F)cc2)cc1 | 1670 nM | 5860 nM | 6820 nM |
| Fc1ccc(C(OCCN2CCN(c3ccccn3)CC2)c2ccc(F)cc2)cc1 | 579 nM | 603 nM | 990 nM |
| Fc1ccc(C(OCCN2CCN(c3ccc(Cl)cc3Cl)CC2)c2ccc(F)cc2)cc1 | 3910 nM | 3750 nM | 10000 nM |
| Fc1ccc(C(OCCN2CCN(c3cccc(Cl)c3)CC2)c2ccc(F)cc2)cc1 | 4960 nM | 1310 nM | 2750 nM |
| Fc1ccc(C(OCCN2CCN(c3ccc(Cl)cc3)CC2)c2ccc(F)cc2)cc1 | 6910 nM | 1590 nM | 1390 nM |
| Fc1ccc(C(OCCN2CCN(c3ccccc3)CC2)c2ccc(F)cc2)cc1 | 1910 nM | 5330 nM | 10000 nM |
| c1ccc(CN2CCN(CCn3nnnc3C(c3ccccc3)c3ccccc3)CC2)cc1 | > 10000 nM | 4220 nM | 2290 nM |
| Fc1ccc(C(OCCN2CCN(c3ccc(Cl)c(Cl)c3)CC2)c2ccc(F)cc2)cc1 | 5220 nM | 1320 nM | 4100 nM |
| Fc1ccc(C(OCCN2CCN(c3ncccn3)CC2)c2ccc(F)cc2)cc1 | 1410 nM | 1620 nM | 1700 nM |

Next, values leading:

| IC50 [1] | IC50 [2] | IC50 [3] | Structure (SMILES) |
| --- | --- | --- | --- |
| 7670 nM | 2020 nM | 1350 nM | O=C(NCCCN1CCC(Cc2ccccc2)CC1)C(c1ccc(Cl)cc1)c1ccc(Cl)cc1 |
| > 10000 nM | 1680 nM | 190 nM | O=C(NCCN1CCC(Cc2ccccc2)CC1)C(c1ccccc1)c1ccccc1 |
| 8000 nM | 569 nM | 1640 nM | c1ccc(CCCN2CCN(CCCn3nnnc3C(c3ccccc3)c3ccccc3)CC2)cc1 |
| > 10000 nM | 519 nM | 94 nM | c1ccc(CC2CCN(CCCn3nnnc3C(c3ccccc3)c3ccccc3)CC2)cc1 |
| 5050 nM | 521 nM | 292 nM | c1ccc(CN2CCN(CCCn3nnnc3C(c3ccccc3)c3ccccc3)CC2)cc1 |
| 8000 nM | 329 nM | 608 nM | c1ccc(CCN2CCN(CCCCn3nnnc3C(c3ccccc3)c3ccccc3)CC2)cc1 |
| 6290 nM | 318 nM | 3640 nM | C(=C\c1ccccc1)/CN1CCN(CCCCn2nnnc2C(c2ccccc2)c2ccccc2)CC1 |
| 4830 nM | 2830 nM | 680 nM | c1ccc(CCN2CCN(CCn3nnnc3C(c3ccccc3)c3ccccc3)CC2)cc1 |
| 3860 nM | 1470 nM | 692 nM | c1ccc(CCCN2CCN(CCn3nnnc3C(c3ccccc3)c3ccccc3)CC2)cc1 |
| 7700 nM | 1710 nM | 310 nM | c1ccc(CC2CCN(CCn3nnnc3C(c3ccccc3)c3ccccc3)CC2)cc1 |
| 1120 nM | 400 nM | 1110 nM | c1ccc(CCN2CCN(CCCn3nnnc3C(c3ccccc3)c3ccccc3)CC2)cc1 |
| 550 nM | 1530 nM | 590 nM | c1ccc(CC2CCN(CCCCn3nnnc3C(c3ccccc3)c3ccccc3)CC2)cc1 |
| > 10000 nM | 1760 nM | 940 nM | C(=C\c1ccccc1)/CN1CCN(CCn2nnnc2C(c2ccccc2)c2ccccc2)CC1 |
| 1500 nM | 323 nM | 317 nM | c1ccc(CN2CCN(CCCCn3nnnc3C(c3ccccc3)c3ccccc3)CC2)cc1 |
